Each block holds one molecule with its values, some of them ahead of it.
Assays:
RAD52 [1] = test system: RAD52; parameters: method as in Chandramouly et al., 2015; conditions: ref Chandramouly et al., 2015; cited from earlier work
RAD52 [2] = molecular target: T1, RAD52 (Homo sapiens, UniProt P43351); assay: WaterLOGSY NMR binding to RAD52; conditions: 20-40 μM compound, 3.3 μM RAD52
T1 construct: made in house
T1 sequence (P43351 1-418): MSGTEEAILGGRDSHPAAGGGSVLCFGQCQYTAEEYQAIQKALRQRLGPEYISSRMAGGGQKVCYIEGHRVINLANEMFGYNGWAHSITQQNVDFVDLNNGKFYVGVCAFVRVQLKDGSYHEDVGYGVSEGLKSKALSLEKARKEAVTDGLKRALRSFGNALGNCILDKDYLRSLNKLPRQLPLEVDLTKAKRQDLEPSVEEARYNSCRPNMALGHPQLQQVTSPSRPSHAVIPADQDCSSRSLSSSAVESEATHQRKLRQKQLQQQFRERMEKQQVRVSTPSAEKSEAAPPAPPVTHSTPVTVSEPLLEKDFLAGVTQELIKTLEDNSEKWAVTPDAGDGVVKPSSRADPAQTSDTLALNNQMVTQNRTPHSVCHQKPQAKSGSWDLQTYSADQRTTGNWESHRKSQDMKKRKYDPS
From the text: (§1) To confirm that the selected compounds bind RAD52, we employed water-ligand observation with gradient spectroscopy (WaterLOGSY), an NMR technique, which is based on transfer of magnetization from bulk water to the protein-bound compound of interest ([Dalvit et al., 2001], [2000]). In WaterLOGSY spectrum, if a compound binds to a protein, the compound will receive negative nuclear Overhauser effects (NOEs) due to the slow tumbling of the protein-compound complex, leading to a positive WaterLOGSY peak. […] Similarly, the binding of ‘6’to RAD52 is evident from the positive WaterLOGSY peaks that are clearly detected for this compound (Figure 3a).
(§2) Compound binding to RAD52 and RPA proteins was analyzed using water-ligand observation with gradient spectroscopy (WaterLOGSY) NMR experiments ([Dalvit et al., 2001], [2000]). The WaterLOGSY spectra of compounds in the presence of RAD52 or RPA were acquired using a water NOE mixing time of 1 s and a T2 relaxation filter of 50 ms just before data acquisition to suppress the broad signals derived from protein. The protein buffer used in the experiments contains 10 mM Tris-d11, 75 mM KCl, 0.25 mM EDTA, pH 7.5, and 10% D20. All NMR data were acquired on a Bruker Avance II 800 MHz NMR spectrometer equipped with a sensitive cryoprobe and recorded at 25°C. The ^1H chemical shifts were referenced to 2,2-dimethyl-2-silapentane-5-sulfonate (DSS). NMR spectra were processed using NMR Pipe ([Delaglio et al., 1995]) and analysed using NMR View ([Johnson and Blevins, 1994]).

RPA [3] = molecular target: T2, RPA (Homo sapiens, UniProt P15927+P27694+P35244); assay: WaterLOGSY NMR binding to RPA; conditions: 20-40 μM compound, 3.3 μM RPA
T2 construct: made in house
From the text: as §1, §2

RPA-ssDNA interaction = molecular target: T3, RPA-ssDNA interaction (Homo sapiens, UniProt P15927+P27694+P35244); assay: FRET titration of the RPA-Cy3-dT30-Cy5 complex; format: binding; conditions: range of tested concentrations
T3 construct: made in house
From the text: In the cell, ssDNA is typically found in complex with Replication protein A (RPA), the major eukaryotic ssDNA-binding protein essential for DNA replication, repair and recombination ([Wold, 1997]; [Oakley and Patrick, 2010]; [Chen and Wold, 2014]). The RPA-ssDNA complex is a physiologically relevant substrate for the RAD52-mediated strand annealing. […] RPA binds ssDNA with high affinity and extends the ssDNA to its contour length. In our assays such an extension manifests as a distinct FRET state of ~0.3, which is readily distinguished from a FRET state of ~0.48 of free Cy3-dT30-Cy5 ssDNA, as well as ~0.63 FRET of the stoichiometric ssDNA-RPA-RAD52 complex (see Figure 2—figure supplement 1 and ([Grimme and Spies, 2011]) for details). […] Both, however, inhibited the RAD52 binding to and wrapping of RPA-coated ssDNA with IC50 values identical to those determined without RPA (Figure 2e and Figure 3e).
In all experiments, the FRET values for each data point were corrected for the effects of the compounds on the respective substrate in the absence of RAD52.

[4] = test system: GM01604 cells (hTERT-immortalized wild-type human fibroblasts); assay: Neutral comet assay, MUS81/EME1/RAD52-dependent DSB formation; format: cell-based; conditions: Homo sapiens, Fibroblast; GM01604, 2 mM HU + 300 nM UCN01, 6h; read-out: IC50, decrease of mean tail moment following HU treatment
From the text: In human cells, RAD52 may perform both limited recombination-mediator function in the RAD51-dependent pathway ([Lok and Powell, 2012]; [Benson et al., 1998]; [Feng et al., 2011]) as well as additional RAD51-independent roles ([Lok and Powell, 2012]; [Murfuni et al., 2013]; [McIlwraith and West, 2008]). One of these HR independent roles of RAD52 involves stimulation of MUS81/EME1-dependent DSB formation at replication forks stalled by hydroxyurea (HU) treatment in the absence of cellular checkpoints ([Murfuni et al., 2013]). Since the most likely targets of these MUS81/EME1/RAD52-dependent DSBs are the DNA structures produced by RAD52 ([Murfuni et al., 2013]), we expected this activity to depend on the RAD52-ssDNA interaction (Figure 5a). To confirm this, we assessed DSB formation in checkpoint deficient cells using the neutral comet assay. These assays monitor MUS81/EME1/RAD52-dependent DSB formation upon induction of replication stress by HU treatment in primary fibroblasts immortalized by hTERT expression and treated with UNC01 to inhibit CHK1 kinase (Figure 5b). […] Importantly, these inhibitors recapitulate RAD52 depletion by inhibiting RAD52-MUS81-dependent DSBs at stalled replication forks (Figure 5a–b). […] It also confirms our previous supposition that the target of MUS81/EME1-mediated cleavage under these conditions are indeed the structures annealed by RAD52. […]
To induce RAD52-MUS81-dependent cleavage at arrested replication forks ([Murfuni et al., 2013]), hTERT-immortalized wild-type human fibroblasts (GM01604) were treated with 2 mM HU and 300 nM UCN01 for 6h, in the presence and absence of varying concentrations of ‘1’ or ‘6’. […] Slides were analyzed by a computerized image analysis system (Comet IV, Perceptive UK). To assess the quantity of DNA damage, computer-generated tail moment values (tail length x fraction of total DNA in the tail) were used. […] A minimum of 100 cells were analyzed for each compound concentration point.

[5] = molecular target: T4, interaction between RAD52 and RPA proteins (Homo sapiens, UniProt P43351); assay: Ni-NTA pull-down of the RAD52-RPA interaction; format: binding; conditions: 3 μM RAD52, 3 μM RPA, 3 μM compound
T4 construct: made in house

RAD52;RPA = RAD52;RPA (Homo sapiens?;Homo sapiens?, UniProt P43351;P27694;P15927;P35244 1-418;1-616;1-270;1-121, |); assay: FRET; 1 nM RPA-coated ssDNA titrated with RAD52; FRET about 0.63; FRET: 30 mM Tris-acetate pH 7.5, 1 mM DTT, 0.1 mg/mL BSA, 25 C; HTS: 20 mM Hepes pH 7.5, 1 mM DTT, 0.1 mg/mL BSA, 25 C; conditions: protein: recombinant;recombinant; tags: ;; chain copies: 7;1;1;1; label: Cy3 and Cy5 at the two ends
RAD52 [6] = molecular target: T5, RAD52 (UniProt P43351 1-418); assay: FRET; 1 nM ssDNA; stoichiometric wrapped complex at about 8 nM RAD52; FRET: 30 mM Tris-acetate pH 7.5, 1 mM DTT, 0.1 mg/mL BSA, 25 C; HTS: 20 mM Hepes pH 7.5, 1 mM DTT, 0.1 mg/mL BSA, 25 C; conditions: protein: recombinant; chain copies: 7; label: Cy3 and Cy5 at the two ends
T5 sequence: T1 sequence (P43351 1-418)

RPA [7] = molecular target: RPA (UniProt P27694;P15927;P35244 1-616;1-270;1-121); assay: FRET; 1 nM RPA, 1 nM ssDNA; FRET about 0.3 versus about 0.48 for free DNA; FRET: 30 mM Tris-acetate pH 7.5, 1 mM DTT, 0.1 mg/mL BSA, 25 C; HTS: 20 mM Hepes pH 7.5, 1 mM DTT, 0.1 mg/mL BSA, 25 C; conditions: protein: recombinant; copies: 1;1;1; label: Cy3 and Cy5 at the two ends
[8] = molecular target: the molecule itself; assay: dynamic light scattering; average hydrodynamic radius of RAD52 (15.8 uM) alone or with equimolar compound; 25 C; 50 mM Tris-HCl pH 7.5, 200 mM KCl, 1 mM DTT, 0.5 mM EDTA

T4 sequence (P27694 whole entry partner, one chain of several): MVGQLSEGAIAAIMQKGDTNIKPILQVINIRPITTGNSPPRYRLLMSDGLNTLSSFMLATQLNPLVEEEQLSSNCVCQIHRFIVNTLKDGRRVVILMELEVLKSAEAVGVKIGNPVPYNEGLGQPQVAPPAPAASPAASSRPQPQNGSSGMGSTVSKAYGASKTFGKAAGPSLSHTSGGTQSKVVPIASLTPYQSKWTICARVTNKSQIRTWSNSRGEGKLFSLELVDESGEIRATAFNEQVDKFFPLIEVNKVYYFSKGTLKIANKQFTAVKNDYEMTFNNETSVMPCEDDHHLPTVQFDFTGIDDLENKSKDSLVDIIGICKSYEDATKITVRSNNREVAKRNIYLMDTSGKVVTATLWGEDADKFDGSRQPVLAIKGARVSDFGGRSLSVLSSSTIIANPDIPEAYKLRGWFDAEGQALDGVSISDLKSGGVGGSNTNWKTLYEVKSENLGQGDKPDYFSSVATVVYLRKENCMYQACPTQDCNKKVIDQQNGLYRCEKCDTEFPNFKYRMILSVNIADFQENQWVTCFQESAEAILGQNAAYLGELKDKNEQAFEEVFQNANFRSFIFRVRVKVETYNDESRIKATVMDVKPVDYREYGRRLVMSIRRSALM
T4 sequence (P15927 whole entry partner, one chain of several): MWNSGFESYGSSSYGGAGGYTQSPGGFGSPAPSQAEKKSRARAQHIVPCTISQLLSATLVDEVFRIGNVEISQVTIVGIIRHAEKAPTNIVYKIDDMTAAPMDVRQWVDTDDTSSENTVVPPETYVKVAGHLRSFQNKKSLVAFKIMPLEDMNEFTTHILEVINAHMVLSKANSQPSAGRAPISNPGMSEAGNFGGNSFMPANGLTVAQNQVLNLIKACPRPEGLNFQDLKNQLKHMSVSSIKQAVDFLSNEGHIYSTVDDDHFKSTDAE
T4 sequence (P35244 whole entry partner, one chain of several): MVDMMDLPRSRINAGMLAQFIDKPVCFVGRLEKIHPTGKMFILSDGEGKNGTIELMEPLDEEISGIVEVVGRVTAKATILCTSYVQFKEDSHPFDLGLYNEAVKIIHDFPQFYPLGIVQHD
T2 sequence (P27694 whole entry): as the sequence (P27694 whole entry partner, one chain of several) above
T2 sequence (P15927 whole entry): as the sequence (P15927 whole entry partner, one chain of several) above
T2 sequence (P35244 whole entry): as the sequence (P35244 whole entry partner, one chain of several) above
T3 sequence (P27694 whole entry): as the sequence (P27694 whole entry partner, one chain of several) above
T3 sequence (P15927 whole entry): as the sequence (P15927 whole entry partner, one chain of several) above
T3 sequence (P35244 whole entry): as the sequence (P35244 whole entry partner, one chain of several) above
Sequence of RAD52;RPA (P27694 whole entry, chain 2 of 3): as the sequence (P27694 whole entry partner, one chain of several) above
Sequence of RAD52;RPA (P15927 whole entry, chain 3 of 3): as the sequence (P15927 whole entry partner, one chain of several) above
Sequence of RAD52;RPA (P35244 whole entry, chain 4 of 3): as the sequence (P35244 whole entry partner, one chain of several) above
Sequence of RPA (UniProt P27694;P15927;P35244 1-616;1-270;1-121) (P27694 whole entry, chain 1 of 3): as the sequence (P27694 whole entry partner, one chain of several) above
Sequence of RPA (UniProt P27694;P15927;P35244 1-616;1-270;1-121) (P15927 whole entry, chain 2 of 3): as the sequence (P15927 whole entry partner, one chain of several) above
Sequence of RPA (UniProt P27694;P15927;P35244 1-616;1-270;1-121) (P35244 whole entry, chain 3 of 3): as the sequence (P35244 whole entry partner, one chain of several) above

Molecule: NC(Cc1cc(O)c(O)cc1O)C(=O)O (racemic) [6-hydroxy-DL-dopa]
effect on RAD52 supramolecular assembly (RAD52 [1]): disrupts supramolecular assembly of the RAD52 protein

binding to RAD52 (WaterLOGSY) (RAD52 [2]): physically interact with RAD52 protein | binding to RPA (WaterLOGSY) (RPA [3]): also binds to RPA
Molecule: O=C(OC1Cc2c(O)cc(O)cc2OC1c1cc(O)c(O)c(O)c1)c1cc(O)c(O)c(O)c1 (stereo not shown) [Compound 6, Epigallocatechin-3-monogallate]
effect on the RPA-ssDNA interaction (RPA-ssDNA interaction): neither ‘1’ nor ‘6’ affected the RPA-ssDNA interaction | IC50 [4]: ~10 µM | effect on the RAD52-RPA interaction [5]: neither ‘1’ nor ‘6’ interfered with the interaction between the two proteins

B1: Cy3-dT30-Cy5 (ssDNA)
DNA: TTTTTTTTTTTTTTTTTTTTTTTTTTTTTT
binding result (RAD52;RPA): binds | binding result (RAD52 [6]): binds | binding result (RPA [7]): binds

B2: 6xHis-tagged human RAD52 protein (natural protein, UniProt P43351 1-418, looked up)
chain: T1 sequence (P43351 1-418)
notes: RAD52, human DNA repair protein; the N-terminal domain in PDB 1KNO is an undecameric ring
binding result [8]: binds

Source: paper PMC4982760, “Small-molecule inhibitors identify the RAD52-ssDNA interaction as critical for recovery from replication stress and for survival of BRCA2 deficient cells” (eLife, 2016)
